In brackets after ≈: the same amount, converted by molar mass.
What was measured:
[1] = Plasma protein binding in dog; type: ADME, cell-free, Canis lupus familiaris; settings: read-out: PPB (converted)
[2] = AUC in Cynomolgus monkey at 2 mg/kg, po and 1 mg/kg, iv; type: ADME, organism-based, Macaca fascicularis; settings: in vivo
[3] = test system: OVCAR-3; assay: In vivo antiproliferative activity against human OVCAR-3 cells xenografted in nude Balc/c mouse tumor model assessed as tumor growth inhibition at 30 mg/kg, po measured after 21 days; type: functional; settings: OVCAR-3, 504 h, time 21 day, read-out: TGI
[4] = Oral bioavailability in Beagle dog at 2 mg/kg; type: ADME, organism-based, Canis lupus familiaris; settings: in vivo
[5] = Permeability of compound across basolateral to apical side in human Caco-2 cells; type: ADME, cell-based; settings: read-out: permeability
[6] = Half life in monkey liver microsomes; type: ADME, Macaca mulatta, Microsome; settings: rhesus monkey
[7] = AUC in Beagle dog at 2 mg/kg, po and 1 mg/kg, iv; type: ADME, organism-based, Canis lupus familiaris; settings: in vivo
[8] = Solubility in compound in FessIF; type: physicochemical
[9] = Cmax in ICR mouse at 2 mg/kg, po and 1 mg/kg, iv; type: ADME, organism-based; settings: in vivo
[10] = Cmax in Sprague-Dawley rat at 2 mg/kg, po and 1 mg/kg, iv; type: ADME, organism-based; settings: in vivo
[11] = Oral bioavailability in Sprague-Dawley rat at 2 mg/kg; type: ADME, organism-based; settings: in vivo
[12] = biological target: T1, Cytochrome P450 3A4 (Homo sapiens, UniProt P08684); assay: Inhibition of CYP3A4 (unknown origin) assessed as reduction in testosterone metabolism; type: ADME
T1 sequence (P08684 whole entry): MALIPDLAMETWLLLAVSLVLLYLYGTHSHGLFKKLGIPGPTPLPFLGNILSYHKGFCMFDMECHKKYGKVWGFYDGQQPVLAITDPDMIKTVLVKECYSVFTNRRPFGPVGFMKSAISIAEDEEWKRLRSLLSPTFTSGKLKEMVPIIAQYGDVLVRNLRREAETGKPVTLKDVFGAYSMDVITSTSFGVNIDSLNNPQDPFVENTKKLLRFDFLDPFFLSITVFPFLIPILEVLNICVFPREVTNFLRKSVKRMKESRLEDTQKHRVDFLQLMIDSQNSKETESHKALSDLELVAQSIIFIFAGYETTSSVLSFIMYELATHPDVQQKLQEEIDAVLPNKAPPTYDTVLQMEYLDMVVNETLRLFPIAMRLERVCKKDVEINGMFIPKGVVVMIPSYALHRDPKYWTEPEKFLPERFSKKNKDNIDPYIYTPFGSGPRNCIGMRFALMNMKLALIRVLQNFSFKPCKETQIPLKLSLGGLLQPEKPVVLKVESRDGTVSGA

[13] = biological target: T1, Cytochrome P450 3A4; assay: Inhibition of CYP3A4 (unknown origin) assessed as reduction in midazolam metabolism; type: ADME
[14] = Half life in Beagle dog at 2 mg/kg, po and 1 mg/kg, iv; type: ADME, organism-based, Canis lupus familiaris; settings: in vivo
[15] = Half life in Balb/c mouse at 30 mg/kg, po; type: ADME, organism-based; settings: in vivo
[16] = Plasma protein binding in monkey; type: ADME, cell-free, Macaca mulatta; settings: rhesus monkey, read-out: PPB (converted)
[17] = AUC in ICR mouse at 2 mg/kg, po and 1 mg/kg, iv; type: ADME, organism-based; settings: in vivo
[18] = AUClast in Sprague-Dawley rat at 2 mg/kg, po and 1 mg/kg, iv; type: ADME, organism-based; settings: in vivo
[19] = Cmax in Cynomolgus monkey at 2 mg/kg, po and 1 mg/kg, iv; type: ADME, organism-based, Macaca fascicularis; settings: in vivo
[20] = Toxicity in nude Balc/c mouse xenografted with human OVCAR-3 cells assessed as change in body weight at 10 to 30 mg/kg, po measured after 21 days; type: organism-based; settings: in vivo, 504 h, dose 10-30 mg/kg, time 21 day
[21] = cells; settings: Homo sapiens, OVCAR-3, 96 h
Description: Antiproliferative activity against KIF18A siRNA sensitive human OVCAR-3 cells assessed as decrease in nuclei number measured after 4 days incubation by Hoechst 33342 DNA dye based nuclear count assay (NCA)

[22] = Cmax in Balb/c mouse at 10 mg/kg, po; type: ADME, organism-based; settings: in vivo
[23] = Solubility in compound in FassGF; type: physicochemical
[24] = Cmax in Beagle dog at 2 mg/kg, po and 1 mg/kg, iv; type: ADME, organism-based, Canis lupus familiaris; settings: in vivo
[25] = Plasma protein binding in mouse; type: ADME, cell-free; settings: read-out: PPB (converted)
[26] = test system: BXPC-3; assay: Antiproliferative activity against human BxPC-3 cells assessed as chemiluminescence measured after 4 days incubation by Celltiter Glo assay; settings: BXPC-3, 96 h
[27] = test system: HCC1954; assay: Antiproliferative activity against human HCC1954 cells assessed as chemiluminescence measured after 4 days incubation by Celltiter Glo assay; settings: HCC1954, 96 h
[28] = Oral bioavailability in ICR mouse at 2 mg/kg; type: ADME, organism-based; settings: in vivo
[29] = Half life in human liver microsomes; type: ADME, Microsome
[30] = Half life in mouse liver microsomes; type: ADME, Microsome
[31] = test system: NCI-N87; assay: Antiproliferative activity against human NCI-N87 cells assessed as chemiluminescence measured after 4 days incubation by Celltiter Glo assay; settings: NCI-N87, 96 h
[32] = test system: NUGC-3; assay: Antiproliferative activity against human NUGC-3 cells assessed as chemiluminescence measured after 4 days incubation by Celltiter Glo assay; settings: NUGC-3, 96 h
[33] = Cmax in Balb/c mouse at 30 mg/kg, po; type: ADME, organism-based; settings: in vivo
[34] = Oral bioavailability in Cynomolgus monkey at 2 mg/kg; type: ADME, organism-based, Macaca fascicularis; settings: in vivo
[35] = AUC in Balb/c mouse at 30 mg/kg, po; type: ADME, organism-based; settings: in vivo
[36] = Half life in ICR mouse at 2 mg/kg, po and 1 mg/kg, iv; type: ADME, organism-based; settings: in vivo
[37] = Plasma protein binding in rat; type: ADME, cell-free; settings: read-out: PPB (converted)
[38] = Half life in Sprague-Dawley rat at 2 mg/kg, po and 1 mg/kg, iv; type: ADME, organism-based; settings: in vivo
[39] = AUC in Balb/c mouse at 10 mg/kg, po; type: ADME, organism-based; settings: in vivo
[40] = Plasma protein binding in human; type: ADME, cell-free; settings: read-out: PPB (converted)
[41] = Permeability of compound across apical to basolateral side in human Caco-2 cells; type: ADME, cell-based; settings: read-out: permeability
[42] = Half life in dog liver microsomes; type: ADME, Canis lupus familiaris, Microsome
[43] = Half life in Cynomolgus monkey at 2 mg/kg, po and 1 mg/kg, iv; type: ADME, organism-based, Macaca fascicularis; settings: in vivo
[44] = test system: OVCAR-3; assay: In vivo antiproliferative activity against human OVCAR-3 cells xenografted in po dosed nude Balc/c mouse tumor model assessed as reduction in tumor volume measured after 21 days; type: functional, organism-based; settings: dose 10-20 mg/kg, time 21.0 day, TDE = time-dependent effect
[45] = Half life in Balb/c mouse at 10 mg/kg, po; type: ADME, organism-based; settings: in vivo
[46] = Solubility in compound in FassIF; type: physicochemical
[47] = biological target: Voltage-gated inwardly rectifying potassium channel KCNH2 (Homo sapiens, UniProt Q12809); assay: Inhibition of hERG; type: toxicity
Chain of Voltage-gated inwardly rectifying potassium channel KCNH2 (Q12809 whole entry): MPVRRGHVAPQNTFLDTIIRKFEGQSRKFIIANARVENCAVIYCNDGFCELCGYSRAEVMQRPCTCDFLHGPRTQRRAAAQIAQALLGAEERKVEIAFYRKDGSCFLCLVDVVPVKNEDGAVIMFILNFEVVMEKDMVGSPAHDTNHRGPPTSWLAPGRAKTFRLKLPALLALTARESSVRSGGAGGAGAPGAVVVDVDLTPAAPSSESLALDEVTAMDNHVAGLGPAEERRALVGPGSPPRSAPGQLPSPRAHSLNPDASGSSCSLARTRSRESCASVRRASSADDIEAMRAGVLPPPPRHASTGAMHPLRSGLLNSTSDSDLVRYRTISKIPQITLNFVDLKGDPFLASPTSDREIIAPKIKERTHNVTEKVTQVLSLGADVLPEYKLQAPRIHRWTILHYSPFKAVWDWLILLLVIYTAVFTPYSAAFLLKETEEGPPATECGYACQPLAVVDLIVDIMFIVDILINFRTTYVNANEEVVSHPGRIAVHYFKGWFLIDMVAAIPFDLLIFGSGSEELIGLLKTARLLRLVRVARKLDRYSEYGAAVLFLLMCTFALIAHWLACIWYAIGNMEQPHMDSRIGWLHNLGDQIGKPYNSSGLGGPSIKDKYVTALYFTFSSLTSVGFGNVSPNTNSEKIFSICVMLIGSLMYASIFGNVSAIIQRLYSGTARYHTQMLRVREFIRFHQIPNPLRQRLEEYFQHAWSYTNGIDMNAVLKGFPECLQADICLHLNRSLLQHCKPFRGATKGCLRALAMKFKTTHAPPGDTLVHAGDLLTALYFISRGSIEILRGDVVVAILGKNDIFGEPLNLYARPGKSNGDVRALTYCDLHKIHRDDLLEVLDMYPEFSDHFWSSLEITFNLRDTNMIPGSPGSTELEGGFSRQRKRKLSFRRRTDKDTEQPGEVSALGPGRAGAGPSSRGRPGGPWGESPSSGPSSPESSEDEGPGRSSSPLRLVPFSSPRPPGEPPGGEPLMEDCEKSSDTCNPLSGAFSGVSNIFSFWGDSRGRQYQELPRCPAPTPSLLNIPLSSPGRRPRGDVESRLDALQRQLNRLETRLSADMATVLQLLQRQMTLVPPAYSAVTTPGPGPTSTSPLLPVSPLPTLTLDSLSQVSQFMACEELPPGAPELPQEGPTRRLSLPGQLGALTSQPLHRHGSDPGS

[48] = Half life in rat liver microsomes; type: ADME, Microsome

`Cc1cc(NC(=O)c2ccc(NS(=O)(=O)CCO)cc2C2=CCC3(CC2)CC3)nc(N2CCC(F)(F)CC2)c1` gave a fraction unbound [1] of 0.0007, an AUC [2] of 2850 ng·h/mL and an inhibition in vivo at 30 mg/kg [3] of 113%. It also gave a bioavailability [4] of 76.9%, a Papp B→A [5] of 0.49 ×10⁻⁶ cm/s and a half-life [6] of 0.203 h. It also gave an AUC [7] of 11500 ng·h/mL, a solubility [8] of 43.6 µM (≈ 24.4 µg/mL) and a Cmax [9] of 393 ng/mL. For the same molecule, the Cmax [10] was 552 ng/mL, the bioavailability [11] was 73% and the IC50 [12] was 23 µM. The IC50 [13] was 22.4 µM, the half-life [14] was 7.6 h and the half-life [15] was 6.38 h. For the same molecule, the fraction unbound [16] was 0.0008, the AUC [17] was 3340 ng·h/mL and the AUC(0-t) [18] was 5840 ng·h/mL. The Cmax [19] was 478 ng/mL, the Activity [20] was “Non-Toxic” and the EC50 [21] was 0.0647 µM. For the same molecule, the Cmax [22] was 2160 ng/mL, the solubility [23] was 3.3 µM (≈ 1.85 µg/mL) and the Cmax [24] was 1150 ng/mL. The fraction unbound [25] was 0.0011, the IC50 [26] was 8.61 µM and the IC50 [27] was 0.014 µM. For the same molecule, the bioavailability [28] was 68.2%, the half-life [29] was 0.38 h and the half-life [30] was 1.47 h. It also gave an IC50 [31] of 8.61 µM, an IC50 [32] of 0.016 µM and a Cmax [33] of 4040 ng/mL. It also gave a bioavailability [34] of 40.2%, an AUC [35] of 54400 ng·h/mL and a half-life [36] of 4.6 h. For the same molecule, the fraction unbound [37] was 0.0023, the half-life [38] was 2.7 h and the AUC [39] was 27700 ng·h/mL. For the same molecule, the fraction unbound [40] was 0.0004, the Papp A→B [41] was < 0.01 ×10⁻⁶ cm/s and the half-life [42] was 2.21 h. For the same molecule, the half-life [43] was 4.5 h, the Activity [44] was “Tde” and the half-life [45] was 3.38 h. For the same molecule, the solubility [46] was 18.5 µM (≈ 10.4 µg/mL), the IC50 [47] was > 30 µM and the half-life [48] was 1.03 h.
